Reference: patent publication US20030215391A1, “Fluorescent agents for real-time measurement of organ function” (priority 2003, published 2003)

What was measured:
[1] = (Aime, 1995); cited from earlier work
[2] = chelate with europium; previous studies (Hemmila, 1984); cited from earlier work
[3] = (Bousquet, 1988); cited from earlier work
[4] = Fluorometric analysis (excitation and emission spectra); type: physicochemical; conditions: FIG. 4
Protocol: For the synthesis of a nile blue-DTPA conjugate, 0.1 g of DTPA dianhydride (ccDPTA) was dissolved in 6 ml of dimethyl sulfoxide (DMSO) in a round bottom flask. Ninety mg of nile blue were dissolved in DMSO and 36 μL of triethyl amine were added, turning the solution purple. The nile blue solution was added drop wise to the solution of ccDTPA while stirring. The solution turned blue. Thirty-eight μL of […] (TEA) were added to the final mixture, turning the solution purple. After mixing, the mixture was heated to 60° C. and stirred for 2 hours. The reaction mixture was then loaded onto a silica gel column and eluted with acetone:ethylacetate. The fractions corresponding to the nile blue-DTPA conjugate were pooled and evaporated, yielding a magenta colored oil. The oil was rechromatographed on a second silica gel column using acetone as eluant. The nile blue-DTPA conjugated fractions were pooled and rotate-evaporated to give a magenta colored oil. […]
The only group of chelating agents known to produce highly soluble and stable lanthanide chelates are the polyamino polyacetic acid analogs. […] The simplest initial approach was to study the fluorescence characteristics of the chelate between Eu and other already commercially available polyaminopoly bis (2-aminoethyl ether) acetic acids. […]

[5] = Solubility in aqueous media at physiological pH; type: physicochemical
From the text: where R may be furoic acid, nicotinic acid, picolinic acid, or some other substituted aromatic acid. The subsituted tetrazacyclododecane (STACD) is produced by reacting the amine groups with a brominated acid. 6-Bromo-picolinic acid, 5-bromo-nicotinic acid, and 5-bromo-furoic acid are all appropriate for prepararing a STACD. However, not all of these molecules are soluble in aqueous media at physiological pH. For example, while the tetrafuroic acid derivative is soluble in physiological fluids, the tetranicotinic acid derivative is not. The derivative should be combined with a solubility enhancer, for example, […], to form a salt which is soluble at pH 7. Other solubility enhancers may also be employed to modify the solubility of the STACD complex.
Magnetic Resonance Imaging Contrast Agent: The molecules of the invention, especially TABFTA, STACD, and their derivatives, can also be used as contrast agents for magnetic resonance imaging (MRI). When chelated with lanthanide ions such as gadolinium (Gd^3+) or […], the resulting paramagnetic compound enhances the relaxation of hydrogen protons, increasing signal intensities in MRI imaging (Bousquet, 1988). The increased signal increases the signal-to-noise ratio, reducing imaging time. In addition, the contrast agent may increase specificity in diagnosis. […]

For `O=C(O)CN(CCN(CC(=O)O)CC(=O)O)CCN(CC(=O)O)CC(=O)O` [DTPA, diethylenetriaminepentaacetic acid], the “affinity constant (k)” value [1] is listed as 23.
In the case of `O=C(O)CN(CCN(CC(=O)O)CC(=O)O)CC(=O)O` [EDTA], the “fluorescence of the chelate” value [2] is listed as “essentially non-fluorescent”.
For `O=C([O-])CN1CCN(CC(=O)[O-])CCN(CC(=O)O)CCN(CC(=O)[O-])CC1.[Gd+3]` [chelates of DOTA and gadolinium], the “distribution after intravenous injection” value [3] is given as “extracellular space distribution” and the “excretion after intravenous injection” value [3] is given as “excreted only by glomerular filtration”.
For `CC[N+](CC)=c1ccc2nc3c(cc(N)c4ccccc43)oc-2c1` [nile blue], the emission fluorescence wavelength [4] was 695 nm.
In the case of “tetraazabycyclofurantetraacetate [TABFTA]”, the water solubility [5] is reported as “water-soluble”.
